Measured values reported in PMC9284491 (Nature Communications, 2022).

Experiment: Treatment-emergent adverse events (MedDRA, NCI-CTCAE v4.03), safety populations
Format: in vivo, human
Protocol: Overall safety in Parts A and B was assessed by tabulating TEAEs, coded using the Medical Dictionary for Regulatory Activities (MedDRA) version 22.1, and graded according to NCI-CTCAE v4.03 criteria. TEAEs were classified as related or unrelated to amcenestrant therapy based upon the local investigating physician’s clinical judgment. The safety population included all patients exposed to at least one dose of the study treatment. Results were analyzed using descriptive statistics.

Compound: O=C(O)c1ccc2c(c1)CCCC(c1ccc(Cl)cc1Cl)=C2c1ccc(O[C@H]2CCN(CCCF)C2)cc1 [amcenestrant, 6-(2,4-Dichlorophenyl)−5-[4-[(3S)−1-(3-fluoropropyl)pyrrolidin-3-yl]oxyphenyl]−8,9-dihydro-7H-benzo[7]annulene-2-carboxylic acid]
- TEAE diarrhea (300 mg BID, 6 participants): 3 n
- participants with at least 1 TEAE regardless of relationship (300 mg BID, 6 participants): 6 participants
- TEAE leading to treatment discontinuation (Part A): No TEAE led to treatment discontinuation
- treatment-related TEAE asthenia, patients (Part A (n = 16)): 18.8%
- treatment-related TEAE constipation, patients (Part A (n = 16)): 18.8%
- treatment-related TEAE decreased appetite, patients (Part A (n = 16)): 18.8%
- treatment-related TEAE diarrhea, patients (Part A (n = 16)): 25.0%
- treatment-related TEAE hot flush, patients (Part A (n = 16)): 31.3%
- treatment-related TEAE nausea, patients (Part A (n = 16)): 25.0%
- treatment-related TEAE night sweats, patients (Part A (n = 16)): 18.8%
- Any TEAE, TEAEs, All grades (Part A, 20-600 mg QD (N = 16)): 16 (100) n (%)
- Any TEAE, TEAEs, Grade 1 (Part A, 20-600 mg QD (N = 16)): 5 (31.3) n (%)
- Any TEAE, TEAEs, Grade 2 (Part A, 20-600 mg QD (N = 16)): 7 (43.8) n (%)
- Any TEAE, TEAEs, Grade ≥3 (Part A, 20-600 mg QD (N = 16)): 4 (25.0) n (%)
- Any TEAE, Treatment-related TEAEs, All Grades (Part A, 20-600 mg QD (N = 16)): 13 (81.3) n (%)
- Any TEAE, Treatment-related TEAEs, Grade 1 (Part A, 20-600 mg QD (N = 16)): 10 (62.5) n (%)
- Any TEAE, Treatment-related TEAEs, Grade 2 (Part A, 20-600 mg QD (N = 16)): 3 (18.8) n (%)
- Any TEAE, Treatment-related TEAEs, Grade ≥3 (Part A, 20-600 mg QD (N = 16)): 0 n (%)
- Arthralgia, TEAEs, All grades (Part A, 20-600 mg QD (N = 16)): 5 (31.3) n (%)
- Arthralgia, TEAEs, Grade 1 (Part A, 20-600 mg QD (N = 16)): 2 (12.5) n (%)
- Arthralgia, TEAEs, Grade 2 (Part A, 20-600 mg QD (N = 16)): 3 (18.8) n (%)
- Arthralgia, TEAEs, Grade ≥3 (Part A, 20-600 mg QD (N = 16)): 0 n (%)
- Arthralgia, Treatment-related TEAEs, All Grades (Part A, 20-600 mg QD (N = 16)): 2 (12.5) n (%)
- Arthralgia, Treatment-related TEAEs, Grade 1 (Part A, 20-600 mg QD (N = 16)): 1 (6.3) n (%)
- Arthralgia, Treatment-related TEAEs, Grade 2 (Part A, 20-600 mg QD (N = 16)): 1 (6.3) n (%)
- Arthralgia, Treatment-related TEAEs, Grade ≥3 (Part A, 20-600 mg QD (N = 16)): 0 n (%)
- Asthenia, TEAEs, All grades (Part A, 20-600 mg QD (N = 16)): 4 (25.0) n (%)
- Asthenia, TEAEs, Grade 1 (Part A, 20-600 mg QD (N = 16)): 2 (12.5) n (%)
- Asthenia, TEAEs, Grade 2 (Part A, 20-600 mg QD (N = 16)): 2 (12.5) n (%)
- Asthenia, TEAEs, Grade ≥3 (Part A, 20-600 mg QD (N = 16)): 0 n (%)
- Asthenia, Treatment-related TEAEs, All Grades (Part A, 20-600 mg QD (N = 16)): 3 (18.8) n (%)
- Asthenia, Treatment-related TEAEs, Grade 1 (Part A, 20-600 mg QD (N = 16)): 3 (18.8) n (%)
- Asthenia, Treatment-related TEAEs, Grade 2 (Part A, 20-600 mg QD (N = 16)): 0 n (%)
- Asthenia, Treatment-related TEAEs, Grade ≥3 (Part A, 20-600 mg QD (N = 16)): 0 n (%)
- Back pain, TEAEs, All grades (Part A, 20-600 mg QD (N = 16)): 3 (18.8) n (%)
- Back pain, TEAEs, Grade 1 (Part A, 20-600 mg QD (N = 16)): 2 (12.5) n (%)
- Back pain, TEAEs, Grade 2 (Part A, 20-600 mg QD (N = 16)): 0 n (%)
- Back pain, TEAEs, Grade ≥3 (Part A, 20-600 mg QD (N = 16)): 1 (6.3) n (%)
- Back pain, Treatment-related TEAEs, All Grades (Part A, 20-600 mg QD (N = 16)): 1 (6.3) n (%)
- Back pain, Treatment-related TEAEs, Grade 1 (Part A, 20-600 mg QD (N = 16)): 1 (6.3) n (%)
- Back pain, Treatment-related TEAEs, Grade 2 (Part A, 20-600 mg QD (N = 16)): 0 n (%)
- Back pain, Treatment-related TEAEs, Grade ≥3 (Part A, 20-600 mg QD (N = 16)): 0 n (%)
- Constipation, TEAEs, All grades (Part A, 20-600 mg QD (N = 16)): 6 (37.5) n (%)
- Constipation, TEAEs, Grade 1 (Part A, 20-600 mg QD (N = 16)): 5 (31.3) n (%)
- Constipation, TEAEs, Grade 2 (Part A, 20-600 mg QD (N = 16)): 1 (6.3) n (%)
- Constipation, TEAEs, Grade ≥3 (Part A, 20-600 mg QD (N = 16)): 0 n (%)
- Constipation, Treatment-related TEAEs, All Grades (Part A, 20-600 mg QD (N = 16)): 3 (18.8) n (%)
- Constipation, Treatment-related TEAEs, Grade 1 (Part A, 20-600 mg QD (N = 16)): 3 (18.8) n (%)
- Constipation, Treatment-related TEAEs, Grade 2 (Part A, 20-600 mg QD (N = 16)): 0 n (%)
- Constipation, Treatment-related TEAEs, Grade ≥3 (Part A, 20-600 mg QD (N = 16)): 0 n (%)
- Decreased appetite, TEAEs, All grades (Part A, 20-600 mg QD (N = 16)): 6 (37.5) n (%)
- Decreased appetite, TEAEs, Grade 1 (Part A, 20-600 mg QD (N = 16)): 6 (37.5) n (%)
- Decreased appetite, TEAEs, Grade 2 (Part A, 20-600 mg QD (N = 16)): 0 n (%)
- Decreased appetite, TEAEs, Grade ≥3 (Part A, 20-600 mg QD (N = 16)): 0 n (%)
- Decreased appetite, Treatment-related TEAEs, All Grades (Part A, 20-600 mg QD (N = 16)): 3 (18.8) n (%)
- Decreased appetite, Treatment-related TEAEs, Grade 1 (Part A, 20-600 mg QD (N = 16)): 3 (18.8) n (%)
- Decreased appetite, Treatment-related TEAEs, Grade 2 (Part A, 20-600 mg QD (N = 16)): 0 n (%)
- Decreased appetite, Treatment-related TEAEs, Grade ≥3 (Part A, 20-600 mg QD (N = 16)): 0 n (%)
- Diarrhea, TEAEs, All grades (Part A, 20-600 mg QD (N = 16)): 6 (37.5) n (%)
- Diarrhea, TEAEs, Grade 1 (Part A, 20-600 mg QD (N = 16)): 5 (31.3) n (%)
- Diarrhea, TEAEs, Grade 2 (Part A, 20-600 mg QD (N = 16)): 1 (6.3) n (%)
- Diarrhea, TEAEs, Grade ≥3 (Part A, 20-600 mg QD (N = 16)): 0 n (%)
- Diarrhea, Treatment-related TEAEs, All Grades (Part A, 20-600 mg QD (N = 16)): 4 (25.0) n (%)
- Diarrhea, Treatment-related TEAEs, Grade 1 (Part A, 20-600 mg QD (N = 16)): 3 (18.8) n (%)
- Diarrhea, Treatment-related TEAEs, Grade 2 (Part A, 20-600 mg QD (N = 16)): 1 (6.3) n (%)
- Diarrhea, Treatment-related TEAEs, Grade ≥3 (Part A, 20-600 mg QD (N = 16)): 0 n (%)
- Dyspnea, TEAEs, All grades (Part A, 20-600 mg QD (N = 16)): 4 (25.0) n (%)
- Dyspnea, TEAEs, Grade 1 (Part A, 20-600 mg QD (N = 16)): 2 (12.5) n (%)
- Dyspnea, TEAEs, Grade 2 (Part A, 20-600 mg QD (N = 16)): 1 (6.3) n (%)
- Dyspnea, TEAEs, Grade ≥3 (Part A, 20-600 mg QD (N = 16)): 1 (6.3) n (%)
- Dyspnea, Treatment-related TEAEs, All Grades (Part A, 20-600 mg QD (N = 16)): 1 (6.3) n (%)
- Dyspnea, Treatment-related TEAEs, Grade 1 (Part A, 20-600 mg QD (N = 16)): 1 (6.3) n (%)
- Dyspnea, Treatment-related TEAEs, Grade 2 (Part A, 20-600 mg QD (N = 16)): 0 n (%)
- Dyspnea, Treatment-related TEAEs, Grade ≥3 (Part A, 20-600 mg QD (N = 16)): 0 n (%)
- Fatigue, TEAEs, All grades (Part A, 20-600 mg QD (N = 16)): 4 (25.0) n (%)
- Fatigue, TEAEs, Grade 1 (Part A, 20-600 mg QD (N = 16)): 3 (18.8) n (%)
- Fatigue, TEAEs, Grade 2 (Part A, 20-600 mg QD (N = 16)): 0 n (%)
- Fatigue, TEAEs, Grade ≥3 (Part A, 20-600 mg QD (N = 16)): 1 (6.3) n (%)
- Fatigue, Treatment-related TEAEs, All Grades (Part A, 20-600 mg QD (N = 16)): 2 (12.5) n (%)
- Fatigue, Treatment-related TEAEs, Grade 1 (Part A, 20-600 mg QD (N = 16)): 2 (12.5) n (%)
- Fatigue, Treatment-related TEAEs, Grade 2 (Part A, 20-600 mg QD (N = 16)): 0 n (%)
- Fatigue, Treatment-related TEAEs, Grade ≥3 (Part A, 20-600 mg QD (N = 16)): 0 n (%)
- Hot flush, TEAEs, All grades (Part A, 20-600 mg QD (N = 16)): 6 (37.5) n (%)
- Hot flush, TEAEs, Grade 1 (Part A, 20-600 mg QD (N = 16)): 6 (37.5) n (%)
- Hot flush, TEAEs, Grade 2 (Part A, 20-600 mg QD (N = 16)): 0 n (%)
- Hot flush, TEAEs, Grade ≥3 (Part A, 20-600 mg QD (N = 16)): 0 n (%)
- Hot flush, Treatment-related TEAEs, All Grades (Part A, 20-600 mg QD (N = 16)): 5 (31.3) n (%)
- Hot flush, Treatment-related TEAEs, Grade 1 (Part A, 20-600 mg QD (N = 16)): 5 (31.3) n (%)
- Hot flush, Treatment-related TEAEs, Grade 2 (Part A, 20-600 mg QD (N = 16)): 0 n (%)
- Hot flush, Treatment-related TEAEs, Grade ≥3 (Part A, 20-600 mg QD (N = 16)): 0 n (%)
- Hypoesthesia, TEAEs, All grades (Part A, 20-600 mg QD (N = 16)): 3 (18.8) n (%)
- Hypoesthesia, TEAEs, Grade 1 (Part A, 20-600 mg QD (N = 16)): 3 (18.8) n (%)
